Test results: patent US10065963B2 (Incyte Corporation, priority 2015, dated 2018)

How the values were obtained:
[1] = target: human JAK1 (a.a. 837-1142) (Homo sapiens, UniProt P23458); experiment: In vitro JAK kinase assay (JAK1); format: biochemical; settings: 1 mM ATP
[2] = target: human JAK2 (a.a. 828-1132) (Homo sapiens (Human), UniProt O60674); experiment: In vitro JAK kinase assay (JAK2); format: biochemical; settings: IC50 ratio, 1 mM ATP
Sequence of human JAK2 (a.a. 828-1132) (O60674 828-1132): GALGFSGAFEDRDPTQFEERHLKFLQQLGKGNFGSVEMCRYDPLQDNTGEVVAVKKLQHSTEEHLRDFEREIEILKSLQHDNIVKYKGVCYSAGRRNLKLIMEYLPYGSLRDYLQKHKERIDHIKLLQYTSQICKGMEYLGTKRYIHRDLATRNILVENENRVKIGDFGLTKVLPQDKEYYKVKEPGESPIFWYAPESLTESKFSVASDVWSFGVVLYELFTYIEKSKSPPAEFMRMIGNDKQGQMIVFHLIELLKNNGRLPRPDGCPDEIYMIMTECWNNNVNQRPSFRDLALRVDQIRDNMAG

IC50 [1]: < 10 nM
JAK2/JAK1 [2]: >10
SMILES: N#CCC(C1CCN(c2cccc(Cl)n2)C1)n1cc(-c2ncnc3[nH]ccc23)cn1 (single isomer, unassigned) [Example 3, 3-[1-(6-chloropyridin-2-yl)pyrrolidin-3-yl]-3-[4-(7H-pyrrolo[2,3-d]pyrimidin-4-yl)-1H-pyrazol-1-yl]propanenitrile]
